Drawing on ChEMBL document CHEMBL1143651, “Design and synthesis of 6-anilinoindazoles as selective inhibitors of c-Jun N-terminal kinase-3” (Bioorg Med Chem Lett, 2005), this text covers IC50 for 10 compounds.

In general, IC50 refers to the concentration that gives 50% inhibition. A lower IC50 goes with greater potency.

The target in assay [1] is Mitogen-activated protein kinase 10 (Homo sapiens, UniProt P53779). The assay is described as follows: Inhibitory concentration against c-Jun N-terminal kinase 3.
The target of assay [2] is Mitogen-activated protein kinase 8 (Homo sapiens, UniProt P45983). The assay is described as follows: Inhibitory concentration against c-Jun N-terminal kinase 1.
Assay [3] addresses Mitogen-activated protein kinase 14 (Homo sapiens, UniProt Q16539). The assay is described as follows: Inhibitory concentration against Mitogen-activated protein kinase p38 alpha.

Sequence of Mitogen-activated protein kinase 8 (P45983 whole entry): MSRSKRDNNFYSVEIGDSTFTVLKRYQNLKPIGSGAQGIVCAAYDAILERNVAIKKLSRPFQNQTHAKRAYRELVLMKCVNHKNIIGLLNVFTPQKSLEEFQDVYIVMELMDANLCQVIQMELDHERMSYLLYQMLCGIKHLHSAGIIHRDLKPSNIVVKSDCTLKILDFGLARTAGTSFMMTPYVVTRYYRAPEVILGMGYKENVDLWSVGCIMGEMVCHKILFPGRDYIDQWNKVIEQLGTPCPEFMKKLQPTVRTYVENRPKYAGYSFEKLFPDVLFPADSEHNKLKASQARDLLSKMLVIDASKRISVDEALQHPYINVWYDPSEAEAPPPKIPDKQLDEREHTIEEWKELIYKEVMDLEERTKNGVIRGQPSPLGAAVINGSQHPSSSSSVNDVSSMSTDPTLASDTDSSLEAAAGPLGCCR
Sequence of Mitogen-activated protein kinase 14 (Q16539 whole entry): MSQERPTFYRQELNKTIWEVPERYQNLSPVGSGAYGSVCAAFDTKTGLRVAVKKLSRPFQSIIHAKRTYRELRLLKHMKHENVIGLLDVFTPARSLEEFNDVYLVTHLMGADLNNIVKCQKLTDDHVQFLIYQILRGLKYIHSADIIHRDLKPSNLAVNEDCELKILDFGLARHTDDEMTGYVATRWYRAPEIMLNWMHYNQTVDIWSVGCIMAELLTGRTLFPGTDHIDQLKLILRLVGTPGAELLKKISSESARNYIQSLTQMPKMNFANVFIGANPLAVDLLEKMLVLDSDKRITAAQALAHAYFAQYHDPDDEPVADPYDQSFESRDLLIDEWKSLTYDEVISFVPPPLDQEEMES
Sequence of Mitogen-activated protein kinase 10 (P53779 whole entry): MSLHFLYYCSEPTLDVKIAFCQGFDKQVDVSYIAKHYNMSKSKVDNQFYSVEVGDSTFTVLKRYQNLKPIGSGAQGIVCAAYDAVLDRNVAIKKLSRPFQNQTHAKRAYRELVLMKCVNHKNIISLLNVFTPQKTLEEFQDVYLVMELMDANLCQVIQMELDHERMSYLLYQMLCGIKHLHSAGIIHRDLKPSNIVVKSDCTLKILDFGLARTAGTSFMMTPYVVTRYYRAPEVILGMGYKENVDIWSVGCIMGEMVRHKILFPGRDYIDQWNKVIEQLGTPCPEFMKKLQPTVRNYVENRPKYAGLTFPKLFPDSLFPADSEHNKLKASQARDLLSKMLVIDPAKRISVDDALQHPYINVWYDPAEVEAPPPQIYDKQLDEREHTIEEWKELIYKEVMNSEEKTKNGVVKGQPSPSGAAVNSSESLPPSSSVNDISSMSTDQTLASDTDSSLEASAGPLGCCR

For `O=C(NC1CCNCC1)c1cccc(-c2n[nH]c3cc(Nc4ccccc4Cl)ccc23)c1`, the concentration for half-maximal inhibition (IC50) in assay [1] worked out at 1.4 nM; in assay [2] it was 71 nM; in assay [3], 4.4 nM.
On the same counts, the results for `O=C(O)c1cccc(-c2n[nH]c3cc(Nc4ccccc4Cl)ccc23)c1` are 5.3 nM, 61 nM and 24 nM.
Taken in the same sequence, the figures for `O=C(O)c1ccc(-c2n[nH]c3cc(Nc4ccccc4Cl)ccc23)cc1` were 32 nM, 246 nM and 13 nM.
`O=C(NCCCN1CCOCC1)c1cccc(-c2n[nH]c3cc(Nc4ccccc4Cl)ccc23)c1`: the 50% inhibitory concentration (IC50) is 3.4 nM in assay [1], 228 nM in assay [2] and 3.7 nM in assay [3].
On the same counts, the results for `CN(C)CCNC(=O)c1cccc(-c2n[nH]c3cc(Nc4ccccc4Cl)ccc23)c1` are 21 nM, 698 nM and 16 nM.
As to `NC(=O)c1cccc(-c2n[nH]c3cc(Nc4ccccc4Cl)ccc23)c1`, the IC50 in assay [1] is 3.3 nM; in assay [2], 81 nM; in assay [3] it was 3.2 nM.
On the same counts, the results for `COc1ccccc1Nc1ccc2c(-c3ccccc3)n[nH]c2c1` are 202 nM, 1600 nM and 46 nM.
Taken in the same sequence, the figures for `c1ccc(Nc2ccc3c(-c4ccccc4)n[nH]c3c2)cc1` were 48 nM, more than 10000 nM and 30 nM.
Take `CN(C)CCNC(=O)c1ccc(-c2n[nH]c3cc(Nc4ccccc4Cl)ccc23)cc1`: the IC50 came to 1.9 nM in assay [1], 45 nM in assay [2] and 8.7 nM in assay [3].
Taken in the same sequence, the figures for `Clc1ccccc1Nc1ccc2c(-c3ccccc3)n[nH]c2c1` were 30 nM, 5350 nM and 18 nM.
